Paper PMC3646771, “The Second Intracellular Loop of the Human Cannabinoid CB2 Receptor Governs G Protein Coupling in Coordination with the Carboxyl Terminal Domain” (PLoS ONE, 2013)

What was measured:
Assay in all cases: CRE-luciferase cAMP reporter, HEK293
Type in all cases: cell-based, Homo sapiens
CB2-ICL2ICL3 (i2i3) = tested on: T1, CB2-ICL2ICL3 (i2i3); settings: agonist; inhibition of cAMP elevated by 10 µM forskolin, 4 h, 37 °C; pEC50 8.47±0.15
T1 construct: gene CNR2; Flag-tagged CB2 with second and third intracellular loops of CB1; HEK293
From the text: CRE-luciferase cAMP reporter, HEK293 on CB2-ICL2ICL3 (i2i3)

CB2-ICL3 (i3) = tested on: T2, CB2-ICL3 (i3); settings: agonist; inhibition of cAMP elevated by 10 µM forskolin, 4 h, 37 °C; pEC50 7.99±0.22
T2 construct: gene CNR2; Flag-tagged CB2 with third intracellular loop replaced by that of CB1; HEK293
From the text: CRE-luciferase cAMP reporter, HEK293 on CB2-ICL3 (i3)

CB2-Cter (Cter) = tested on: T3, CB2-Cter (Cter); settings: agonist, 4 h, 37 °C
T3 construct: gene CNR2; Flag-tagged CB2 with C-terminal tail replaced by that of CB1; HEK293
From the text: CRE-luciferase cAMP reporter, HEK293 on CB2-Cter (Cter)

CB2-ICL1 (i1) = tested on: T4, CB2-ICL1 (i1); settings: agonist; inhibition of cAMP elevated by 10 µM forskolin, 4 h, 37 °C; pEC50 8.17±0.19
T4 construct: gene CNR2; Flag-tagged CB2 with first intracellular loop replaced by that of CB1; HEK293
From the text: CRE-luciferase cAMP reporter, HEK293 on CB2-ICL1 (i1)

CB2-ICL2 (i2) = tested on: T5, CB2-ICL2 (i2); settings: agonist; inhibition of cAMP elevated by 10 µM forskolin, 4 h, 37 °C; pEC50 7.74±0.09
T5 construct: gene CNR2; Flag-tagged CB2 with second intracellular loop replaced by that of CB1; HEK293
From the text: CRE-luciferase cAMP reporter, HEK293 on CB2-ICL2 (i2)

[1] = tested on: T6, CB2-ICL2ICL3Cter (i2i3Cter); settings: agonist; inhibition of cAMP elevated by 10 µM forskolin, 4 h, 37 °C; pEC50 8.48±0.22
T6 construct: gene CNR2; Flag-tagged CB2 with second and third intracellular loops and C-terminal tail of CB1; HEK293
From the text: CRE-luciferase cAMP reporter, HEK293 on CB2-ICL2ICL3Cter (i2i3Cter)

CB2-ICL2Cter (i2Cter) = tested on: T7, CB2-ICL2Cter (i2Cter); settings: agonist; stimulation of cAMP, no forskolin, 4 h, 37 °C; pEC50 6.85±0.1
T7 construct: gene CNR2; Flag-tagged CB2 with second intracellular loop and C-terminal tail of CB1; HEK293
From the text: CRE-luciferase cAMP reporter, HEK293 on CB2-ICL2Cter (i2Cter)

SMILES: Cc1c(C(=O)c2cccc3ccccc23)c2cccc3c2n1[C@H](CN1CCOCC1)CO3 [WIN55,212-2]
- EC50 (CB2-ICL2ICL3 (i2i3)): 3.8 ± 1.2 nM
- EC50 (CB2-ICL3 (i3)): 13.4 ± 7.3 nM
- EC50 (CB2-Cter (Cter); P139LCter, stimulation of cAMP, no forskolin, pEC50 7.53±0.11): 29.8 ± 7.1 nM
- EC50 (CB2-Cter (Cter); inhibition of cAMP elevated by 10 µM forskolin, pEC50 8.23±0.03): 5.9 ± 0.4 nM
- EC50 (CB2-ICL1 (i1)): 8 ± 2.8 nM
- EC50 (CB2-ICL2 (i2)): 19.2 ± 4.4 nM
- EC50 [1]: 4.4 ± 2.4 nM
- EC50 (CB2-ICL2Cter (i2Cter)): 149 ± 35 nM
